In PMC11122949, “Metabolic Blockade-Based Genome Mining of Sea Anemone-Associated Streptomyces sp. S1502 Identifies Atypical Angucyclines WS-5995 A–E: Isolation, Identification, Biosynthetic Investigation, and Bioactivities” (Marine Drugs, 2024):
One block for each compound: values may come before it.

Tests used:
MCF-7 = assay: MTT cytotoxicity assay, MCF-7; assay type: cell-based, human
Experimental: (§1) Compounds 1–5 were tested for their cytotoxic activities against different normal and tumor human cell lines, the MTT assay was used to assess cytotoxicity as described previously. Briefly, different tumor cells and normal cells were seeded onto 96-well plates at the appropriate density and allowed to attach overnight. Drugs at various concentrations were added to the culture medium and cells were cultured for another 68 h at 37 °C. MTT (5 mg/mL, 20 μL/well) was then added to the wells for additional 4 h, and the medium was discarded before 150 μL of DMSO was added to dissolve the MTT-formazan crystals. Absorbance was measured at 540 nm, with background subtraction at 670 nm using Model 550 Microplate Reader (Bio-Rad, Hercules, CA, USA). The Bliss method was used to calculate the half maximal (50%) inhibitory concentration (IC50) values. Data represent the mean ± SD of at least three independent experiments.

BT-549 = assay: MTT cytotoxicity assay, BT-549; assay type: cell-based, human; details: BT-549, 72 h
Experimental: as §1

RBE = assay: MTT cytotoxicity assay, RBE; assay type: cell-based, human; details: 72 h
Experimental: as §1

A549 = assay: MTT cytotoxicity assay, A549; assay type: cell-based, human; details: A549, 72 h
Experimental: as §1

NCM-460 = assay: MTT cytotoxicity assay, NCM-460 (normal cells); assay type: cell-based; details: 72 h
Experimental: as §1

Huvec = assay: MTT cytotoxicity assay, Huvec (normal cells); assay type: cell-based; details: 72 h, Huvec normal human cell line
Experimental: as §1

Eimeria tenella = assay: In vitro anticoccidial activity (qPCR); assay type: cell-based; details: 48 h
Experimental: The number of Eimeria tenella spores and the cells were seeded in a 24-well plate at a ratio of 1:1 and incubated for 6 h, and the medium was discarded and washed with PBS three times. Then, 500 μL of medium was added to each well, followed by the addition of the medium containing the compounds, the blank control group (no spores and no compounds) and positive control group (with spores but no compound) were set, and 10 μM of sulfaclozinium chloride sodium served as a control drug, and three replicates were set up. The culture remained in an incubator containing 5% CO2 at 38 °C for 48 h. After 48 h, the medium was discarded and washed with PBS three times, and the total RNA of each well was extracted and reverse-transcribed into cDNA. qPCR was used to detect the effects of the compounds on the growth and development of E. tenella.

[1] = system: MCF-7, BT-549, RBE and A549; NCM-46 and Huvec; assay: MTT cytotoxicity, whole panel of cell lines; assay type: cell-based; details: four human cancer and two normal human cell lines
Experimental: as §1

[2] = system: Eimeria tenella infections; design: method as in PMID 7451360; details: animal experiments; cited from earlier work
fungi = system: fungi; design: method as in PMID 19798499; details: cited from earlier work
[3] = Homo sapiens, MCF7, MCF-7, 72 h
[4] = NCM460, NCM-460 normal human cell line

SMILES: COc1cccc2c1C(=O)c1c(O)c3c(c(O)c1C2=O)C[C@@](O)(C(=O)CO)C[C@@H]3O[C@H]1C[C@H](N)[C@H](O)[C@H](C)O1 [Adriamycin, reference compound]
IC50 (MCF-7; [3]): 2.96 µM
IC50 (BT-549; Homo sapiens): 6.42 µM
IC50 (RBE; Homo sapiens): 3.62 µM
IC50 (A549; Homo sapiens): 4.62 µM
IC50 (NCM-460; [4]): 3.24 µM
IC50 (Huvec; Homo sapiens, HUVEC): 3.87 µM

SMILES: N.N.[Cl][Pt][Cl] [Cisplatin, reference compound]
IC50 (MCF-7; MCF-7, 72 h): 4.49 µM
IC50 (BT-549): 14.2 µM
IC50 (RBE): 4.26 µM
IC50 (A549): 9.34 µM
IC50 (NCM-460; NCM-460 normal human cell line): 19 µM
IC50 (Huvec): 5.26 µM

SMILES: CCOC(=O)c1cc(C)cc(OC)c1C1=C(O)C(=O)c2c(O)cccc2C1=O [Compound 1, WS-5995 E]
IC50 (MCF-7; [3]): > 50 µM
IC50 (BT-549; Homo sapiens): > 50 µM
IC50 (RBE; Homo sapiens): > 50 µM
IC50 (A549; Homo sapiens): > 50 µM
IC50 (NCM-460; [4]): > 50 µM
IC50 (Huvec; Homo sapiens, HUVEC): > 50 µM
in vitro anti-E. tenella bioactivity (Eimeria tenella): only exhibited activity at high concentrations
cytotoxic effects against the tested cell lines [1]: did not exhibit cytotoxic effects

IC50 (Eimeria tenella; Eimeria tenella, read-out: anti-E. tenella activity IC50): 2.21 µM
SMILES: COc1cc(C)cc2c(=O)oc3c(c12)C(=O)c1cccc(O)c1C3=O [Compound 2, WS-5995A]
IC50 (MCF-7; [3]): > 50 µM
IC50 (BT-549; Homo sapiens): > 50 µM
IC50 (RBE; Homo sapiens): 21.4 µM
IC50 (A549; Homo sapiens): > 50 µM
IC50 (NCM-460; [4]): 40.8 µM
IC50 (Huvec; Homo sapiens, HUVEC): 31.2 µM
in vitro anti-E. tenella bioactivity (Eimeria tenella): significant anticoccidial activity
protective activity against Eimeria tenella infections [2]: excellent protective activity

SMILES: COc1cc(C)cc(C(=O)O)c1C1=CC(=O)c2c(O)cccc2C1=O [Compound 3, WS-5995B]
IC50 (MCF-7; [3]): 19.6 µM
IC50 (BT-549; Homo sapiens): 5.97 µM
IC50 (RBE; Homo sapiens): 16.8 µM
IC50 (A549; Homo sapiens): > 50 µM
IC50 (NCM-460; [4]): 18.5 µM
IC50 (Huvec; Homo sapiens, HUVEC): 7.67 µM
protective activity against Eimeria tenella infections [2]: excellent protective activity
antifungal activity (fungi): antifungal activity

SMILES: COc1cc(C)cc(C(=O)O)c1C1=C(O)C(=O)c2c(O)cccc2C1=O [Compound 4, WS-5995C]
IC50 (MCF-7; [3]): > 50 µM
IC50 (BT-549; Homo sapiens): > 50 µM
IC50 (RBE; Homo sapiens): > 50 µM
IC50 (A549; Homo sapiens): > 50 µM
IC50 (NCM-460; [4]): > 50 µM
IC50 (Huvec; Homo sapiens, HUVEC): > 50 µM
in vitro anti-E. tenella bioactivity (Eimeria tenella): not active
cytotoxic effects against the tested cell lines [1]: did not exhibit cytotoxic effects

SMILES: COC(=O)c1cc(C)cc(OC)c1C1=C(O)C(=O)c2c(O)cccc2C1=O [Compound 5, WS-5995D]
IC50 (MCF-7; [3]): > 50 µM
IC50 (BT-549; Homo sapiens): > 50 µM
IC50 (RBE; Homo sapiens): > 50 µM
IC50 (A549; Homo sapiens): > 50 µM
IC50 (NCM-460; [4]): > 50 µM
IC50 (Huvec; Homo sapiens, HUVEC): > 50 µM
in vitro anti-E. tenella bioactivity (Eimeria tenella): only exhibited activity at high concentrations
cytotoxic effects against the tested cell lines [1]: did not exhibit cytotoxic effects
